The results in this text go back to patent US8748117B2, “Probe for detection and quantification of nitric oxide, and method for detecting and quantifying nitric oxide using the same” (Japan Science and Technology Agency, priority 2004, dated 2014).

The subject of assay [1] is CHO-K1 cells expressed with NOA-1. Put plainly: Selectivity of NOA-1 FRET response (CO, natriuretic peptide, cAMP generation). The assay is classed as cell-based. The following applies: for CFP/YFP emission ratio of NOA-1: excess concentration, several cultured cell types including CHO-K1 cells. The source says:
As to the selectivity of NOA-1, the FRET response of NOA-1 for carbon monoxide (CO) was examined.
CO is a sGC activator but has a lower affinity with sGC than NO. In addition, the CO-bound sGC is known to have much lower cyclase activity than NO-bound sGC because of each different coordination to the heme iron. Physiologically generated CO thus appears not to affect the response of NOA-1.
Effect of natriuretic peptide stimulation or cAMP generation on the FRET response of NOA-1 was examined.

Assay [2] concerns the target T1, nitric oxide synthase (NOS) (Bos taurus, UniProt P29473).
T1 construct: endogenous in cells; host or cells: bovine pulmonary artery endothelial cells
T1 sequence (P29473 2-1205 limits assumed): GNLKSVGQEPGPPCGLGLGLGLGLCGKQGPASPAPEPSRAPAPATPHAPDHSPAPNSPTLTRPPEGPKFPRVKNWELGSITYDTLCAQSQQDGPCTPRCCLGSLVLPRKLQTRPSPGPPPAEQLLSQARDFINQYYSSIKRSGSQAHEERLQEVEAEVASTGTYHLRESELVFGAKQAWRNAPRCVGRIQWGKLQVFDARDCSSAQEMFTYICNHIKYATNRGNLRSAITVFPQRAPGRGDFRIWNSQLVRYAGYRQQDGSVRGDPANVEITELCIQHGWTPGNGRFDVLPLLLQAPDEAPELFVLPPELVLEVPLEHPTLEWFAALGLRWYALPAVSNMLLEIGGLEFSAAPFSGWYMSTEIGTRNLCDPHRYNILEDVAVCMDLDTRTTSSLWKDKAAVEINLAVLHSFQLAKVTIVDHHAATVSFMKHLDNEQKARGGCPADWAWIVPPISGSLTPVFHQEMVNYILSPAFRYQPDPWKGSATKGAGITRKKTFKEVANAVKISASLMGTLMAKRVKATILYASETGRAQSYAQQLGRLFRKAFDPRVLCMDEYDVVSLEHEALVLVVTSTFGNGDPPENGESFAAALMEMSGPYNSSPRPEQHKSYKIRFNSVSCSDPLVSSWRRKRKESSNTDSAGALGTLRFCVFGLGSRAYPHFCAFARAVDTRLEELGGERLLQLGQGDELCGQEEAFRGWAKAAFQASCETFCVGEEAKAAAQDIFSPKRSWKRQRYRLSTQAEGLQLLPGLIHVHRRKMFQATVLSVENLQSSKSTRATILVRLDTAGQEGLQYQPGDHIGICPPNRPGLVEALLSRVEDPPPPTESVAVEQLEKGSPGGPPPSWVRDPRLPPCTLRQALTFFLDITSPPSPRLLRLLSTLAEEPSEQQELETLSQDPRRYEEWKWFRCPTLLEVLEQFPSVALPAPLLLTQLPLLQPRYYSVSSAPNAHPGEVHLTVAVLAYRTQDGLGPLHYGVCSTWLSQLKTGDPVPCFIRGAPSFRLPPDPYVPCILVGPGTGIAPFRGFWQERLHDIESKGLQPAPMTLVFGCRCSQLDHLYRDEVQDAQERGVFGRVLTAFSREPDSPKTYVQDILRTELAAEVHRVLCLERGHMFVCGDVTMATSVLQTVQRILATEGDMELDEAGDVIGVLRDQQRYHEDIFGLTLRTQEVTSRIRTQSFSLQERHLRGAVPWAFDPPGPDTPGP
Put plainly: NOS inhibitor effect on NOA-1 emission ratio in endothelial cells. The assay is classed as cell-based, bovine. As to conditions: 1 mM L-NAME. As for the experimental part: (§1) (1) NOA-1 was expressed in endothelial cells from bovine pulmonary artery cultured in a serum-supplemented media. […] This is based on difference of basal NO concentration between CHO-K1 cell and vascular endothelial cell. (3) Endothelial cells and CHO-K1 cells were pretreated with an inhibitor for nitric oxide synthase (NOS), 1 mM L-NAME and the CFP/YFP emission ratio of NOA-1 was observed.

Assay [3] deals with nitric oxide synthase (NOS). Put plainly: NOS inhibitor effect on NOA-1 emission ratio in CHO-K1 cells. The assay is classed as cell-based. The following applies: 1 mM L-NAME. As for the experimental part:
as §1

The test system of assay [4] is phosphatidyl inositol 3-kinase (PI(3)K). Put plainly: PI(3)K inhibitor effect on basal NO (NOA-1 emission ratio) in endothelial cells. The assay is classed as cell-based, bovine. As for the experimental part: The stable generation of the basal NO concentration was examined in vascular endothelial cells cultured in a serum-containing medium.
That is, the endothelial cells expressing NOA-1 was added with 100 μM LY 294002), and the CFP/YFP emission ratio was monitored for the NO concentrations in the cells.

The test system of assay [5] is endothelial cells from bovine pulmonary artery. Put plainly: NOA-1 CFP/YFP emission ratio in vascular endothelial cells. The assay is classed as cell-based. As for the experimental part: as §1
(4) The response of NOA-1 for excess NOC-7 between the endothelial and CHO-K1 cells was compared.
We stimulated the endothelial and CHO-K1 cells with 10 μM NOC-7, which generates enough concentration of NO to immediately saturate the NOA-1 response. […] As a result, in endothelial cells, the obtained change in the emission ratio upon the excess NOC-7 stimulation was actually only one-third of that in CHO-K1 cells (FIG. 13B).
(§2) (6) The basal concentration of NO in each vascular endothelial cell was measured. We first inhibited endogenous eNOS with 1 mM L-NAME to remove the basal NO and cGMP generated by the basal NO. The CFP/YFP emission ratios before and after the inhibition of endogenous eNOS, respectively, represent the basal and zero concentrations of NO in each endothelial cell (FIG. 15). To quantitate the basal concentration of NO, we subsequently added various concentrations of NO to each endothelial cell, in which eNOS activity was inhibited with L-NAME. The peak response of NOA-1 was plotted at each concentration of NO. Based on the obtained dose-response of NOA-1 for various concentrations of NO, we measured 1 nM of the basal NO concentration generated in each endothelial cell.

Assay [6] has as its system CHO-K1 cells expressing NOA-1. Nature of the assay: CFP/YFP emission ratio of NOA-1 in CHO-K1 cells upon NOC-7 / NO stimulation. The assay is classed as cell-based. As for the experimental part:
cDNAs respectively expressing the hybrid proteins were constructed. The hybrid proteins respectively comprise cGMP-visualization probe (hereinafter described as CGY) connected with C-terminus of sGCα or sGCβ through the linker of SEC ID NO.1 (GGEQKLISEEDLLESR). The CYG was prepared according to the method in Patent documents 1 and 2. The heterodimmer of the hybrid proteins was named as “NOA-1” (fluorescent indicator for NO with a signal amplifier) (FIGS. 2A and B). At N-terminus of NOA-1, FLAG tag of SEC ID NO.2 (MDYKDDDDK) may be attached.
(§3) Two cDNAs were introduced into CHO K1 cells having little amount of endogenous sGC thereby coexpressing both sGCα-CGY and sGCβ-CGY in the cells.
In the same manner as in Example 1, both sGCα-CGY and sGCβ-CGY were coexpressed in CHO-K1 cells.
In the same manner as in Example 1, the CHO-K1 cells coexpressed with both sGCα and sGCβ were stimulated with various amount of NOC-7 to measure the changes of CFP/YFP emission ratio dependent to NO concentrations (FIG. 6).
In the same manner as in Example 1, the CHO-K1 cells expressing NOA-1 were stimulated with various amount of NOC-7 to measure the changes of CFP/YFP emission ratio by NO and 8-Br-cGMP stimulations (FIGS. 7A and 7B).
The NO-dependent FRET response of NOA-1 was confirmed by using NO solutions prepared by bubbling NO gas. […] Importantly, NOA-1 senses not only an increase in the NO concentration but also its removal by oxidation and/or volatilization. This NO-dependent reversible response of NOA-1 is caused by the reversible binding of NO to the heme group in NOA-1 and endogenous phosphodiesterases that immediately hydrolyze the generated cGMP molecules after the removal of NO.

The test system of assay [7] is CHO-K1 cells expressed with sGCα-CGY or sGCβ-CGY. Put plainly: CFP/YFP emission ratio in CHO-K1 cells expressing sGCα-CGY or sGCβ-CGY alone. The assay is classed as cell-based. As to conditions: subsequent addition of 2 mM 8-Br-cGMP after 50 nM NOC-7.
Another assay deals with sGC. Put plainly: Block of the NOC-7 response of NOA-1 by sGC inhibitor pretreatment in CHO-K1 cells. The assay is classed as cell-based. The following applies: cells pretreated with NS 2028 (100 μM, FIG. 3-b).
From the text: as §3

A further assay deals with phosphodiesterases (PDE). Nature of the assay: Effect of PDE inhibitor on NOA-1 emission ratio in CHO-K1 cells. The assay is classed as cell-based. As for the experimental part:
as §3
The latter recovery of the decreased emission ratio disappeared when the cells were pretreated with an inhibitor of phosphodiesterases (PDE) that hydrolyses cGMP, zaprinast (FIG. 3-c).
as §2

A further assay concerns phosphodiesterases. Put plainly: PDE inhibitor effect on NOA-1 emission ratio in endothelial cells. The assay is classed as cell-based, bovine. As to conditions: 200 μM zaprinast; endothelial cells expressing NOA-1.

“Also recorded” adds a separate entry of the source.

In the case of `[C-]#[O+]` [CO, carbon monoxide], in assay [1] (100 μM CO), the “response of NOA-1 compared with that for 5 nM NO” value was “transient but much smaller response”. In addition, the CFP/YFP emission ratio entry in assay [1] (CO up to 10 μM) is “no significant change”.

For `COC(=O)[C@@H](N)CCCNC(=N)N[N+](=O)[O-]` [L-NAME], the “CFP/YFP emission ratio of NOA-1” value in assay [2] was “gradually increased”; in [3] it was “no significant change”.

Take `O=c1cc(N2CCOCC2)oc2c(-c3ccccc3)cccc12` [LY 294002, 2-(4-morpholinyl)-8-phenyl-1(4H)-benzopyran-4-one]: in [4] (100 μM LY 294002), the “time to reach plateau of the emission ratio” value was no more than 25 min. Besides, the emission ratio result in [4] (100 μM LY 294002, endothelial cells expressing NOA-1) is listed as “significantly increased”. In addition, the “effect on basal NO” value in [4] (endothelial cells, serum-containing medium) is “removed the basal NO concentration; also recorded: inhibitory effect on basal NO generation”.

In the case of “insulin: stimulation activates the PI(3)K-Akt pathway”, in [5] (insulin stimulation), the “NO concentration in the endothelial cells” value is “further increases the NO concentration”.

With `Nc1nc2c(nc(Br)n2[C@@H]2O[C@@H]3COP(=O)(O)O[C@H]3[C@H]2O)c(=O)[nH]1` [8-Br-cGMP], the “plateau response of CFP/YFP emission ratio” value in assay [6] (addition of 2 mM 8-Br-cGMP after 100 nM NOC-7) is given as “did not further decrease”. In addition, the CFP/YFP emission ratio entry in assay [7] is “quick decrease”.

On to `O=c1onc2n1-c1cc(Br)ccc1OC2` [NS 2028], for which, in the assay on sGC, the “transient change in the emission ratio by 5 nM NOC-7” value is listed as “completely blocked”.

For `CC[C@H](C)[C@@H]1NC(=O)[C@H](CCCNC(=N)N)NC(=O)[C@H](CC(=O)O)NC(=O)[C@H](CCSC)NC(=O)[C@H](CCCNC(=N)N)NC(=O)CNC(=O)CNC(=O)[C@H](Cc2ccccc2)NC(=O)[C@@H](NC(=O)[C@H](CO)NC(=O)[C@H](CO)NC(=O)[C@H](CCCNC(=N)N)NC(=O)[C@H](CCCNC(=N)N)NC(=O)[C@H](CC(C)C)NC(=O)[C@@H](N)CO)CSSC[C@@H](C(=O)N[C@@H](CC(N)=O)C(=O)N[C@@H](CO)C(=O)N[C@@H](Cc2ccccc2)C(=O)N[C@@H](CCCNC(=N)N)C(=O)N[C@@H](Cc2ccc(O)cc2)C(=O)O)NC(=O)CNC(=O)[C@H](CC(C)C)NC(=O)CNC(=O)[C@H](CO)NC(=O)[C@H](CCC(N)=O)NC(=O)[C@H](C)NC(=O)CNC1=O` [atrial natriuretic peptide], the “CFP/YFP emission ratio of NOA-1” value in [1] was “no significant change”.

Regarding `CNCCCNN(N=O)C(C)CO` (stereo not drawn) [NOC-7, 3-(2-hydroxy-1-methylethyl-2-nitrosohydrazino)-N-methyl-1-propanamine], the CFP/YFP emission ratio result was “dose-dependent transient response; also recorded: NO-dependent transient change” in [6] (1 nM or 5 nM NOC-7); “reaches a plateau and then slowly recovered to the initial level; also recorded: quick decrease” in assay [6] (10 nM NOC-7); “did not show no recovery to the initial level even after 20 minutes” in assay [6] (50 nM or 100 nM NOC-7); “did not subsequently show significant recovery for at least 10 min” in assay [6] (100 nM NOC-7, after reaching the plateau); “immediately decreased but gradually recovered up to the initial level” in [6] (stimulated with 5 nM NOC-7, CHO-K1 coexpressing sGCα-CGY and sGCβ-CGY). In addition, the “CFP/YFP emission ratio response on repeated stimulation” value in [6] (second 5 nM NOC-7 stimulation after recovery to the initial value) is listed as “same transient response”. Moreover, the “change in the emission ratio upon excess NOC-7 in endothelial cells relative to CHO-K1 cells” value in assay [5] (10 μM NOC-7) was “one-third”. The emission ratios result in [5] (10 μM NOC-7, endothelial and CHO-K1 cells) was “immediately decreased”.

As for `CC(C)NCC(O)c1ccc(O)c(O)c1` (stereo not drawn) [isoproterenol], in assay [1], the “CFP/YFP emission ratio of NOA-1” value is reported as “no significant change”.

Regarding `CCCOc1ccccc1-c1nc2nn[nH]c2c(=O)[nH]1` [zaprinast], the “latter recovery of the decreased emission ratio after 5 nM NOC-7” value in the assay on phosphodiesterases (PDE) (cells pretreated with zaprinast (200 μM, FIG. 3-c)) is listed as “disappeared”. For the same compound, in the assay on phosphodiesterases (PDE) (treatment with zaprinast, NOA-1 in CHO-K1), the emission ratio entry is reported as “no significant change”. Besides, in the assay on phosphodiesterases, the CFP/YFP emission ratio entry was “gradually decreased and reached the saturation of NOA-1 response”.
